Reference: PubChem BioAssay (NCI)
Where “and” joins values, the source holds several entries; their conditions need not be identical. Equal entries are not always repeated.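 The compound was tested at five concentrations on cells cultured in 96-well plates, with a 48-hour exposure period. GI50 is the concentration that inhibits growth by half. The concentration for full growth arrest is given as TGI.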

Key:
Assay in all cases: inhibition of tumour cell growth, NCI panel, 48 h
[1] = system: 786-0 renal
[2] = system: SR leukemia
[3] = system: NCI-H226 lung
[4] = system: SF-268 CNS
[5] = system: CAKI-1 renal
[6] = system: RPMI-8226 leukemia
[7] = system: MDA-MB-231 breast
[8] = system: T-47D breast
[9] = system: PC-3 prostate
[10] = system: MCF7 breast

Row | SMILES | TGI [1] | TGI [2] | TGI [3] | TGI [4] | TGI [5] | TGI [6] [µM] | GI50 [1] [µM] | GI50 [7] [µM] | TGI [7] [µM] | GI50 [3] [µM] | GI50 [4] [µM] | GI50 [8] [µM] | TGI [8] [µM] | GI50 [5] [µM] | GI50 [9] [µM] | TGI [9] [µM] | GI50 [6] [µM] | GI50 [10] [µM] | TGI [10] [µM] | GI50 [2] [µM]
1 | Cc1ccc(NC(=O)CC/C(CC(=O)C(C)(C)C)=N/NC(=O)C[N+](C)(C)C)cc1C | 52.9 µM | > 100 µM | > 100 µM | > 100 µM | > 100 µM | – | – | – | – | – | – | – | – | – | – | – | – | – | – | –
2 | CSc1nc2c(nc(N)n2C2OC(COC(C)=O)C(OC(C)=O)C(OC(C)=O)C2OC(C)=O)c(=O)n1C (centres undefined) | > 100 µM | – | > 100 µM | – | > 100 µM | > 100 | – | – | – | – | – | – | – | – | – | – | – | – | – | –
3 | CCOC(=O)C1=C(C)N(Cc2ccccc2)C(=O)C1CC#N (centres undefined) | > 100 µM | > 100 µM | – | – | > 100 µM | > 100 | – | – | – | – | – | – | – | – | – | – | – | – | – | –
4 | C[N+](C)(CCCCCC[N+](C)(C)CCCN1C(=O)c2cc3ccccc3cc2C1=O)CCCN1C(=O)c2cc3ccccc3cc2C1=O | > 37.5 µM | – | > 37.5 µM | > 37.5 µM | > 37.5 µM | > 37.5 | > 37.5 | > 37.5 | > 37.5 | > 37.5 | > 37.5 | > 37.5 | > 37.5 | > 37.5 | > 37.5 | > 37.5 | > 37.5 | > 37.5 | > 37.5 | –
5 | NCCCn1c2c(c3ccc([N+](=O)[O-])cc3c1=O)C(=O)c1cc(-c3ccccc3)ccc1-2 | 0.334 µM | 0.46 µM | – | – | 3.21 µM | 1.45 | 0.181 | 1.29 | 2.85 | – | – | – | – | 1.67 | 1.35 | 2.71 | 0.348 | 0.357 | 1.32 | 0.183
6 | COC(=O)NC(=Nc1ccc(Oc2ccccc2)cc1NC=O)NC(=O)OC | > 100 µM | – | 9.4 µM | > 100 µM | – | > 100 | – | – | – | – | – | – | – | – | – | – | – | – | – | –
7 | C=C(C)C1CC=C(C)CC1 (centres undefined) | > 100 µM and 1620 µM | > 100 µM and 2050 µM | > 100 µM and 1570 µM | > 100 µM and 1680 µM | > 100 µM and 1680 µM | > 100 | > 100 | – | – | > 100 | > 100 | – | – | > 100 | – | – | – | – | – | > 100
8 | O=C(N=Nc1c(O)[nH]c2ccccc12)c1oc2ccccc2c1CN1CCN(c2ccccc2)CC1 | 1.84 µM | – | 20.5 µM | 13.8 µM | 9.61 µM | – | 0.865 | 1.45 | 4.58 | 6.68 | 1.97 | 1.38 | 5.41 | 2.42 | 1.59 | 7.23 | – | 1.43 | 5.89 | –
9 | Cn1c(=O)c2ccc(-c3ccc(Br)cc3)nc2n(C)c1=O | > 100 µM | > 100 µM | > 100 µM | > 100 µM | – | > 100 | – | – | – | – | – | – | – | – | – | – | – | – | – | –
10 | COc1ccc2c(c1)[n+]([O-])c(-c1ccc(Br)cc1)c(N)[n+]2[O-] | > 100 µM | > 100 µM | > 100 µM | > 100 µM | > 100 µM | – | – | – | – | – | – | – | – | – | – | – | – | – | – | –
11 | COc1ccc(-c2nc(Nc3ccc(-c4nc5ccccc5[nH]4)cc3)nc(N3CCOCC3)n2)cc1 | 3.23 µM | – | 8.6 µM | 26.5 µM | 5.02 µM | 6.54 | 1.44 | 1.63 | 4.76 | 3.32 | 2.82 | – | – | 1.98 | 2.39 | 6.66 | 1.93 | 2.59 | > 100 | –
12 | O=C(CC1(O)C(=O)Nc2ccccc21)c1ccc(F)cc1 (centres undefined) | > 100 µM | – | > 100 µM | > 100 µM | > 100 µM | > 100 | – | – | – | – | – | – | – | – | – | – | – | – | – | –
13 | N#Cc1cc([N+](=O)[O-])ccc1NC(=O)C(F)(F)F | > 89.5 µM | > 100 µM | > 100 µM | > 100 µM | > 100 µM | > 66.9 | – | – | – | – | – | – | – | – | – | – | – | – | – | –
14 | C/C=C(/CCC1NCCC2c3ccccc3NC12)[Si](C)(C)C (centres undefined) | 23.7 µM | 12.5 µM | 27.1 µM | 23.5 µM | 22.8 µM | 13.7 | – | – | – | – | – | – | – | – | – | – | – | – | – | –
15 | Clc1nc(Cl)c2c3c(sc2n1)CCCC3 | > 100 µM | – | > 28.8 µM | > 100 µM | > 100 µM | – | 5.17 | – | – | 2.54 | 4.37 | > 22.1 | > 100 | > 100 | – | – | – | 3.56 | > 100 | –
16 | COC(=O)NN1C(C)=C(C(=O)OC)C2(C#N)C(C(=O)OC)=C(C)N(NC(=O)OC)C12N (centres undefined) | > 100 µM | – | > 100 µM | > 100 µM | > 100 µM | > 100 | – | – | – | – | – | – | – | – | – | – | – | – | – | –
17 | COC(=O)c1ccc2c(c1)C(=O)c1c-2n(C)c(=O)c2cc(OC)c(OC)cc12 | > 50 µM | – | > 50 µM | > 50 µM | > 50 µM | > 50 | 21.8 | 21.2 | > 50 | > 50 | > 50 | > 50 | > 50 | > 50 | > 50 | > 50 | > 50 | > 50 | > 50 | –
